# In US20190290656A1, “PT(IV) PRODRUGS” (YISSUM RESEARCH DEVELOPMENT COMPANY OF THE HEBREW …, priority 2015, published 2019):
# Key:
# PC3 cells = experiment: MTT cytotoxicity assay, PC3; format: cell-based, human; settings: PC3, 72 h exposure, read-out: IC50 (median growth inhibitory concentration)
# Protocol: (§1) Cisplatin (CDDP) and oxaliplatin (OXP) were dissolved just before the experiment in a 0.9% NaCl solution.
# (§2) Human prostate adenocarcinoma (PC3) cells were obtained from European Collection of Cell Cultures (ECACC, Salisbury, UK). Human ovarian cancer cell lines A2780 and its cisplatin resistant variant, A2780cisR, were kindly provided by Prof.
# (§3) Triplicate cultures were established for each treatment.
# MCF-7 cells = experiment: MTT cytotoxicity assay, MCF-7; format: cell-based, human; settings: MCF-7, 72 h exposure, MTT; read-out: IC50 (median growth inhibitory concentration)
# Protocol: as §1, §2, §3
# A2780 cells = experiment: MTT cytotoxicity assay, A2780; format: cell-based, human; settings: A2780, 72 h exposure, MTT; read-out: IC50 (median growth inhibitory concentration)
# Protocol: Platinum(IV) complexes were dissolved in DMSO to stock solutions of 1 mg/mL just before the experiment, and a calculated amount of drug solution was added to the cell growth medium to a final solvent concentration of 0.5%, which had no discernible effect on cell killing. Cisplatin (CDDP) and oxaliplatin (OXP) were dissolved just before the experiment in a 0.9% NaCl solution.
# as §2
# Cancer Res. 1988, 48, 589-601]. […] Triplicate cultures were established for each treatment.
# [1] = octanol/water partition, shake-flask method; format: physicochemical
# Protocol: To quantify the hydrophobicity of the platinum complexes, partition coefficients (log P) values for octanol/water partition were measured using the shake-flask method.
# A549 cells = experiment: MTT cytotoxicity assay, A549; format: cell-based, human; settings: A549, 72 h exposure, MTT; read-out: IC50 (median growth inhibitory concentration)
# Protocol: as §1, §2, §3
# PSN-1 cells = experiment: Nuclear DNA fragmentation ELISA, PSN-1; format: cell-based, human; settings: 48 h, IC50
# Protocol: FIGS. 13A-13B provide: FIG. 13A) Cytochrome c release. […] FIG. 13B) Nuclear DNA fragmentation. […] Quantitative estimation of DNA fragmentation was obtained with an ELISA test. Data are the means of five independent experiments. Error bars indicate SD.
# After 48 h of treatment a roughly 20-fold increase in histone-DNA formation was detected with 3a with respect to controls.
# [2] = Reduction in buffer in the presence of ascorbic acid; format: physicochemical; settings: 1 Eq ascorbic acid, phosphate buffer, RT, 2 hours
# Protocol: A solution 2.0 mM of 3a (Scheme 4) in buffer was treated with 1 Eq ascorbic acid. NMR measurements were performed over a 2 hour time frame.
# In order to assay which of the two Pt metal centers of 3a is more prone to be reduced, we added 1 Eq of ascorbic acid to a solution of 3a in phosphate buffer. […] Finally, we carried out the reaction at RT and not at 37° C. to avoid a fast reduction process that would have made more complicated its study.
# The reaction was monitored by ^1H NMR spectroscopy (FIG. 9). Already after 2 min, time needed to prepare the sample and start the NMR experiment, besides the signals belonging to 3a, previously discussed, it was possible to note the signal belonging to [Pt(DACH)(56Phen)]^2+, free phenyl butyric acid and a signal at 6.34 ppm, consistent with a DCA moiety coordinated to a Pt(IV) metal center. These signals indicated the reduction of the phenanthroline-bonded Pt unit of 3a to [Pt(DACH)(56Phen)]^2+, and the release of the axial ligands, […] and c,c,t-[Pt(NH3)2(DCA)(OOCCH2CH2CH2NHCOCH2CH2COOH)] (5). We were not able to isolate the latter species. […] The reaction was monitored for about 2 hours. In FIG. 9 are reported the spectra recorded after 9, 21 and 59 min. In the second hour, no changes were detected.
# [3] = Stability in phosphate buffer (NMR); format: physicochemical; settings: phosphate buffer pH 7, 37° C.
# Protocol: A solution 2.0 mM of 3a (Scheme 4) in sodium phosphate buffer (50 mM, pH=7) was kept at 37° C. for 3 days. NMR and HPLC measurements were performed every day.
# A 2.0 mM solution of 3a in phosphate buffer at pH=7 was kept at 37° C. in order to assay its stability by mean of NMR spectroscopy (FIG. 7). […] The signal at 7.40 ppm was assigned to the amidic proton. The signals at 7.18 and 6.48 belong to the aromatic ring of the coordinated phenylbutyrate. The large difference in chemical shifts between the 2 ortho protons of the phenyl ring and the 3 meta and para protons, coupled with the unusually low chemical shifts for the aromatic ortho protons, indicates a strong intramolecular interaction with the phenanthroline. Finally, the peak at 6.37 belongs to the coordinated DCA.
# [4] = Cyclic voltammetric measurements; format: physicochemical; settings: cyclic voltammetry
# Protocol: Finally, units 1a and 2a (Scheme 4) were used for the formation of a peptide bond, to afford 3a. DMSO turned out to be a good solvent for this reaction, although DMF also afforded good results. ^1H NMR assignments for 1a, 2a, and 3a (Scheme 4) are summarized in Table 4. Cylic voltammetric measurements (CV) were performed on complex 3a and 3b finding Ep values of −0.462 and −0.058 V. The first reduction peak was assigned to the reduction of the cisplatin-derivative portion of the dinuclear complex, because of similarity with the values reported for similar complexes. The less negative reduction peak was assigned to the Pt-Phenantroline metal center, because of similarity to the values reported for the bis axial phenylbutyrato Pt(IV) complex Pt56MeSS(PhB)2.
Compound,IC50 (PC3 cells),IC50 (MCF-7 cells),IC50 (A2780 cells),Log P [1],IC50 (A549 cells),fold increase in histone-DNA formation with respect to controls (PSN-1 cells),reduction by ascorbic acid (in words) [2],Pt(IV)-phen reduced ([3]; after 2 days),Pt(IV)-phen reduced ([3]; after 3 days),Pt(IV)-cisPt NMR signal (1101 ppm) relative to Pt(IV)-phen signal (703 ppm) ([3]; after a day),Pt(IV)-phen reduced ([3]; after one day),"Ep, first reduction peak (cisplatin-derivative portion) [4]","Ep, less negative reduction peak (Pt-Phenantroline metal center) [4]"
"[NH2][Pt]([NH2])([Cl])[Cl] [CDDP, Cisplatin, reference compound]",2.25 ± 0.82 µM,17.4 ± 0.2 µM,2.8 ± 0.2 µM,−2.25 ± 0.04,8.35 ± 0.87 µM,,,,,,,,
"c,c,t,t,c,c-[(DACH)(56Phen)(PhBu)Pt(μ-OOC—(CH2)2—CONH(CH2)3COO)—Pt(DCA)(NH3)2 (Cl2)](TFA)2 [Compound 3a]",,,,,,roughly 20 fold,faster reduction of the phenanthroline-bonded Pt unit,about 9%,10%,15%,approximately 6.5%,−0.462 V,−0.058 V
